In the NIST ThermoML archive (doi:10.1016/j.fluid.2016.02.009):
± gives the expanded uncertainty stated by the source.

Settings: Liquid, Vibrating tube method

CC(C)CCOCCC(C)C [di-(3-methylbutyl) ether]
Settings | mass density [kg/m3]
283.15 K, 100 kPa | 782.76 ± 0.3
283.15 K, 5000 kPa | 786.88 ± 0.32
283.15 K, 10000 kPa | 790.71 ± 0.35
283.15 K, 15000 kPa | 794.36 ± 0.38
283.15 K, 20000 kPa | 797.85 ± 0.41
283.15 K, 25000 kPa | 801.22 ± 0.44
283.15 K, 30000 kPa | 804.45 ± 0.47
283.15 K, 35000 kPa | 807.58 ± 0.5
283.15 K, 40000 kPa | 810.61 ± 0.53
283.15 K, 45000 kPa | 813.52 ± 0.56
283.15 K, 50000 kPa | 816.37 ± 0.59
283.15 K, 55000 kPa | 819.14 ± 0.62
283.15 K, 60000 kPa | 821.82 ± 0.65
283.15 K, 65000 kPa | 824.44 ± 0.68
288.15 K, 100 kPa | 778.71 ± 0.3
288.15 K, 5000 kPa | 782.95 ± 0.32
288.15 K, 10000 kPa | 786.89 ± 0.35
288.15 K, 15000 kPa | 790.64 ± 0.38
288.15 K, 20000 kPa | 794.22 ± 0.41
288.15 K, 25000 kPa | 797.65 ± 0.44
288.15 K, 30000 kPa | 800.95 ± 0.47
288.15 K, 35000 kPa | 804.15 ± 0.5
288.15 K, 40000 kPa | 807.23 ± 0.53
288.15 K, 45000 kPa | 810.19 ± 0.57
288.15 K, 50000 kPa | 813.09 ± 0.6
288.15 K, 55000 kPa | 815.91 ± 0.63
288.15 K, 60000 kPa | 818.64 ± 0.66
288.15 K, 65000 kPa | 821.33 ± 0.68
293.15 K, 100 kPa | 774.66 ± 0.3
293.15 K, 5000 kPa | 779.03 ± 0.32
293.15 K, 10000 kPa | 783.04 ± 0.35
293.15 K, 15000 kPa | 786.89 ± 0.38
293.15 K, 20000 kPa | 790.55 ± 0.41
293.15 K, 25000 kPa | 794.08 ± 0.44
293.15 K, 30000 kPa | 797.46 ± 0.47
293.15 K, 35000 kPa | 800.71 ± 0.51
293.15 K, 40000 kPa | 803.86 ± 0.54
293.15 K, 45000 kPa | 806.9 ± 0.57
293.15 K, 50000 kPa | 809.84 ± 0.6
293.15 K, 55000 kPa | 812.71 ± 0.63
293.15 K, 60000 kPa | 815.48 ± 0.66
293.15 K, 65000 kPa | 818.18 ± 0.69
298.15 K, 100 kPa | 770.6 ± 0.3
298.15 K, 5000 kPa | 775.09 ± 0.33
298.15 K, 10000 kPa | 779.24 ± 0.36
298.15 K, 15000 kPa | 783.18 ± 0.39
298.15 K, 20000 kPa | 786.94 ± 0.42
298.15 K, 25000 kPa | 790.54 ± 0.45
298.15 K, 30000 kPa | 793.99 ± 0.48
298.15 K, 35000 kPa | 797.31 ± 0.51
298.15 K, 40000 kPa | 800.51 ± 0.54
298.15 K, 45000 kPa | 803.61 ± 0.58
298.15 K, 50000 kPa | 806.62 ± 0.61
298.15 K, 55000 kPa | 809.51 ± 0.64
298.15 K, 60000 kPa | 812.33 ± 0.67
298.15 K, 65000 kPa | 815.07 ± 0.7
303.15 K, 100 kPa | 766.54 ± 0.3
303.15 K, 5000 kPa | 771.15 ± 0.33
303.15 K, 10000 kPa | 775.41 ± 0.36
303.15 K, 15000 kPa | 779.46 ± 0.39
303.15 K, 20000 kPa | 783.3 ± 0.42
303.15 K, 25000 kPa | 786.98 ± 0.45
303.15 K, 30000 kPa | 790.53 ± 0.48
303.15 K, 35000 kPa | 793.91 ± 0.51
303.15 K, 40000 kPa | 797.19 ± 0.55
303.15 K, 45000 kPa | 800.34 ± 0.58
303.15 K, 50000 kPa | 803.4 ± 0.62
303.15 K, 55000 kPa | 806.36 ± 0.65
303.15 K, 60000 kPa | 809.23 ± 0.68
303.15 K, 65000 kPa | 812.01 ± 0.71
308.15 K, 100 kPa | 762.46 ± 0.3
308.15 K, 5000 kPa | 767.21 ± 0.33
308.15 K, 10000 kPa | 771.57 ± 0.36
308.15 K, 15000 kPa | 775.74 ± 0.39
308.15 K, 20000 kPa | 779.67 ± 0.42
308.15 K, 25000 kPa | 783.45 ± 0.45
308.15 K, 30000 kPa | 787.05 ± 0.48
308.15 K, 35000 kPa | 790.52 ± 0.52
308.15 K, 40000 kPa | 793.86 ± 0.55
308.15 K, 45000 kPa | 797.07 ± 0.59
308.15 K, 50000 kPa | 800.19 ± 0.62
308.15 K, 55000 kPa | 803.2 ± 0.65
308.15 K, 60000 kPa | 806.11 ± 0.69
308.15 K, 65000 kPa | 808.94 ± 0.72
313.15 K, 100 kPa | 758.37 ± 0.3
313.15 K, 5000 kPa | 763.24 ± 0.33
313.15 K, 10000 kPa | 767.74 ± 0.36
313.15 K, 15000 kPa | 772.01 ± 0.39
313.15 K, 20000 kPa | 776.05 ± 0.42
313.15 K, 25000 kPa | 779.9 ± 0.46
313.15 K, 30000 kPa | 783.59 ± 0.49
313.15 K, 35000 kPa | 787.12 ± 0.52
313.15 K, 40000 kPa | 790.53 ± 0.56
313.15 K, 45000 kPa | 793.81 ± 0.59
313.15 K, 50000 kPa | 796.97 ± 0.63
313.15 K, 55000 kPa | 800.03 ± 0.66
313.15 K, 60000 kPa | 803 ± 0.69
313.15 K, 65000 kPa | 805.88 ± 0.72
318.15 K, 100 kPa | 754.27 ± 0.3
318.15 K, 5000 kPa | 759.27 ± 0.33
318.15 K, 10000 kPa | 763.91 ± 0.36
318.15 K, 15000 kPa | 768.28 ± 0.39
318.15 K, 20000 kPa | 772.42 ± 0.43
318.15 K, 25000 kPa | 776.38 ± 0.46
318.15 K, 30000 kPa | 780.14 ± 0.49
318.15 K, 35000 kPa | 783.75 ± 0.53
318.15 K, 40000 kPa | 787.22 ± 0.57
318.15 K, 45000 kPa | 790.57 ± 0.6
318.15 K, 50000 kPa | 793.81 ± 0.63
318.15 K, 55000 kPa | 796.91 ± 0.67
318.15 K, 60000 kPa | 799.93 ± 0.7
318.15 K, 65000 kPa | 802.85 ± 0.73
323.15 K, 100 kPa | 750.16 ± 0.3
323.15 K, 5000 kPa | 755.32 ± 0.33
323.15 K, 10000 kPa | 760.1 ± 0.36
323.15 K, 15000 kPa | 764.59 ± 0.4
323.15 K, 20000 kPa | 768.84 ± 0.43
323.15 K, 25000 kPa | 772.87 ± 0.46
323.15 K, 30000 kPa | 776.74 ± 0.5
323.15 K, 35000 kPa | 780.43 ± 0.53
323.15 K, 40000 kPa | 783.97 ± 0.57
323.15 K, 45000 kPa | 787.37 ± 0.61
323.15 K, 50000 kPa | 790.66 ± 0.64
323.15 K, 55000 kPa | 793.83 ± 0.67
323.15 K, 60000 kPa | 796.89 ± 0.71
323.15 K, 65000 kPa | 799.86 ± 0.74
328.15 K, 100 kPa | 746.03 ± 0.3
328.15 K, 5000 kPa | 751.35 ± 0.33
328.15 K, 10000 kPa | 756.23 ± 0.36
328.15 K, 15000 kPa | 760.85 ± 0.4
328.15 K, 20000 kPa | 765.22 ± 0.43
328.15 K, 25000 kPa | 769.33 ± 0.47
328.15 K, 30000 kPa | 773.28 ± 0.5
328.15 K, 35000 kPa | 777.06 ± 0.54
328.15 K, 40000 kPa | 780.66 ± 0.58
328.15 K, 45000 kPa | 784.15 ± 0.61
328.15 K, 50000 kPa | 787.49 ± 0.65
328.15 K, 55000 kPa | 790.7 ± 0.68
328.15 K, 60000 kPa | 793.83 ± 0.71
328.15 K, 65000 kPa | 796.84 ± 0.75
333.15 K, 100 kPa | 741.88 ± 0.3
333.15 K, 5000 kPa | 747.34 ± 0.33
333.15 K, 10000 kPa | 752.39 ± 0.37
333.15 K, 15000 kPa | 757.12 ± 0.4
333.15 K, 20000 kPa | 761.58 ± 0.43
333.15 K, 25000 kPa | 765.79 ± 0.47
333.15 K, 30000 kPa | 769.84 ± 0.5
333.15 K, 35000 kPa | 773.7 ± 0.54
333.15 K, 40000 kPa | 777.39 ± 0.58
333.15 K, 45000 kPa | 780.93 ± 0.62
333.15 K, 50000 kPa | 784.33 ± 0.65
333.15 K, 55000 kPa | 787.59 ± 0.69
333.15 K, 60000 kPa | 790.76 ± 0.72
333.15 K, 65000 kPa | 793.83 ± 0.75
